# Patent US9546367B2, “siRNA compositions and methods for inhibiting gene expression in tumor initiating cells of breast cancer” (priority 2011, dated 2017)
# How the values were obtained:
# iNOS = test: Western blot of nitric oxide synthases after siRNA knockdown; format: cell-based, human; conditions: three triple-negative cell lines (SUM159, BT549, MDAMB231) treated in vitro with siRNA
# Description: (§1) In order to confirm the pathways involved in BCSC targeting, western blot analysis was conducted with siRNA knockdown and overexpression of RPL39 and MLF2 in three breast cancer cell lines (SUM159, BT549 and MDAMB231). Briefly, 30 μg of whole cell extracts were quantified and run on a 4-20% gel for 1 hr, and transferred onto nitrocellulose membranes. The primary antibodies were incubated overnight at the following dilutions eNOS (1:500), nNOS (1:500), and iNOS (1:1000) (Millipore, Bellerica, Mass., USA) followed by one-hour secondary antibody incubation, and development using chemiluminescence.
# nNOS = test: as above; format: cell-based, human; conditions: three triple-negative cell lines treated in vitro with siRNA
# Description: as §1
# eNOS = test: as above; format: cell-based, human; conditions: three triple-negative cell lines treated in vitro with siRNA
# Description: as §1
# SUM159 tumor = test: MDS/siRNA by tail vein in SUM159 tumor mice, MSFE of isolated cells; format: in vivo, SCID/Beige mice; conditions: MDS/siRNA by tail vein injection, cells isolated 3 weeks later
# Description: (§2) To develop siRNA nanotherapeutics targeting TIC, studies have been conducted to confirm the essential roles of the candidate TIC genes. Exemplary siRNA oligonucleotides specific for STAT3, MFL2, and RPL39L were formulated into nanoliposomes, which were then loaded into porous silicon MSV particles. For in vitro assay, BT549 and SUM159 cells were incubated with MSV/siRNA, and primary and secondary MSFE was measured. […] For in vivo assessment, SCID/Beige mice were inoculated with SUM159 tumor, and treated with MDS/siRNA delivered by tail vein injection. Cells were then isolated from tumor mice 3 weeks later, and MSFE was measured. […] These studies indicate that 1) MDS/siRNA could successfully be delivered to tumor tissues effectively in vivo, 2) uptake of MDS/siRNA by TIC was efficient, and 3) MFL2 and RPL39L were essential genes for TIC.
# SUM159 = test: in vitro MSFE with nanoliposome/silicon particle packaged siRNA; format: cell-based, human; conditions: for secondary MSFE: SUM159, siRNA, Day 8, p<0.05; for primary and secondary MSFE: SUM159 incubated with MSV/siRNA
# Description: (§3) “Claudin-low”-like human breast cancer cell lines (SUM159 and BT549) were plated in 24-well ultralow attachment plates with mammary epithelial growth medium (MEGM) (5,000 cells/well). Both cell lines were then treated with 1 μg/well/6 wells of silicon particles loaded with DOPC nanoliposomes/siRNA. The primary MSs were allowed to grow for 3 days. MFs were counted on Day 3 with a GelCount colony counter (Oxford Optronix, Oxford, UK). Mammosphere-Forming Efficiency (MSFE) was calculated by dividing the number of MSs by the number of seeded cells. In addition, established MSs were serially passaged by dissociation, and single cells were re-plated on fresh 24-well, ultra-low-attachment plates to form secondary mammospheres, which were counted after 3 days. One-way ANOVA and Tukey tests were performed. A p-value of less than 0.05 was considered significant.
# (§4) To develop a more clinically relevant model, two of the identified candidates (MLF2 and RPL39L) were compared to Stat3 (positive control), and their siRNA sequences identified within the shRNA vector. These siRNAs were then packaged in nanoliposomes and tested for MSFE using the same protocol as above, except for the addition of packaged siRNA instead of lentiviral shRNA. (N.B. wherein shRNA requires a promoter and needs to be transcribed in order to function, siRNA functions by itself once incorporated into recipient cells).
# as §2
# (§5) The siRNA sequences of two candidate genes RPL39 and MLF2 were packaged in nanoliposomes and the effects on MSFE determined in vitro, as described above, using packaged siRNA instead of lentiviral shRNA.
# BT549 = test: as above; format: cell-based, human; conditions: for secondary MSFE: BT549, siRNA, Day 8, p<0.05; for primary and secondary MSFE: BT549 incubated with MSV/siRNA
# Description: as §3, §4, §2, §5
substance,measurement,setting,value
"MLF2 siRNA: siRNA against myeloid leukemia factor 2; sense SEQ ID NO: 3 CCCTGATGGATCCCTTTGCTAT, antisense SEQ ID NO: 19 ATAGCAAAGGGATCCATCAGGA (packaged in nanoliposomes, chemistry not given here, further chemistry not given here)",iNOS signaling,iNOS,clear reduction
same,nNOS,nNOS,no changes
same,eNOS,eNOS,decrease
same,MSFE of cells isolated from tumor mice,SUM159 tumor,Dramatic reduction
same,secondary MSFE,SUM159,significantly reduced
same,primary and secondary MSFE,SUM159,significant reduction
same,secondary MSFE,BT549,significantly reduced
same,primary and secondary MSFE,BT549,significant reduction
"RPL39 siRNA: siRNA against ribosomal protein L39-like; sense SEQ ID NO: 15 ACGATTCCTGGCCAAGAAACAA, antisense SEQ ID NO: 31 TTGTTTCTTGGCCAGGAATCGC (listed as DNA, chemistry not fully specified)",iNOS signaling,iNOS,clear reduction
same,nNOS,nNOS,no changes
same,eNOS,eNOS,decrease
same,MSFE of cells isolated from tumor mice,SUM159 tumor,Dramatic reduction
same,secondary MSFE,SUM159,significantly reduced
same,primary and secondary MSFE,SUM159,significant reduction
same,secondary MSFE,BT549,significantly reduced
same,primary and secondary MSFE,BT549,significant reduction
